Data from a melting point compilation (Tetko et al.; mined from patent text by program, amines drawn as free bases though some values may be those of a salt).

SMILES	melting point [°C]
NC(=O)N1C(=O)Cc2ccc(-c3ccccc3)cc21	188 to 189
O=CN1C2CCC1CC(Oc1ccc(Cl)cn1)C2 (stereo not drawn)	112 to 114
COCCOC(=O)c1cc(-n2c(OC)nc(C(F)(F)C(F)(F)F)cc2=O)c(F)cc1Cl	92 to 94
Cn1nc(N)c2c(F)cccc21	125 to 127
COc1nc(N)nc(-c2ccccc2)n1	159 to 160
CC(C)(C)NC(=O)C1CC(C)(C)NC(C)(C)C1=NO (stereo not drawn)	136 to 139
Cc1nn(C)c(F)c1C(=O)F	85 to 87
O=C(Nc1cccc(Br)c1)c1ccccc1SSc1ccccc1C(=O)Nc1cccc(Br)c1	194 to 196
CC1(C)N[C@H](Cc2ccc(Br)cc2)[C@@H]2C(=O)N(Cc3ccccc3)C(=O)[C@@H]21 (racemic)	142 to 143
CCCCCCCCP(=O)(O)CCCCCCCC	84 to 86
CCCCOCCCNC(c1ccccc1)C(O)c1ccccc1 (stereo not drawn)	82 to 84
O=C(O)c1ccc(-c2nn(Cc3cccc(Cl)c3)c(=S)[nH]2)cc1	302
CC1(C)CCc2c(ccc3c2C(=O)C(Cl)=C(Cl)C3=O)O1	158 to 160
COc1cc2c(Oc3cccc4[nH]ccc34)ncnc2cc1OCCCN1CCCCC1	80 to 82
CCOC(=O)c1cn(C2CC2)c2nc(Cl)c(F)c(C)c2c1=O	170 to 171
CS(=O)(=O)c1ccc(C(=O)Nc2ccc(Cl)c(-c3ccc(C(=O)NO)cn3)c2)c(Cl)c1	190 to 193
N#CN=[N+]([O-])c1ccc2c(c1)OCO2	145 to 147
CC(C)c1ccc(C(=O)NC(C)c2cccs2)cc1 (stereo not drawn)	100
COc1cc(C=O)ccc1OCC(=O)OC(C)(C)C	86.8 to 90
CCOC(=O)c1c[nH]c2nc(NCc3ccccc3)nn2c1=O	275 to 278
Cc1cc(OCc2coc(C=Cc3ccc(OC(F)F)cc3)n2)ccc1COCCn1ccnn1	119 to 120

SMILES	melting point [°C]
CN(C)S(=O)c1nc2ccccc2s1 (stereo not drawn)	121 to 122
CC(C)(C)NS(=O)(=O)c1c(CCl)nc2ccccn12	180 to 182
CCN1c2c(oc(=O)n(-c3ccccn3)c2=O)-c2ccccc2S1(=O)=O	268 to 270
CC(O)(CNC(=S)Nc1ccc(Br)cc1)C(=O)Nc1ccc([N+](=O)[O-])c(C(F)(F)F)c1 (stereo not drawn)	192 to 195
CCOc1cc(C(C)(c2cc(OCC)c(O)c(OCC)c2)c2cc(OCC)c(O)c(OCC)c2)cc(OCC)c1O	78
CC1([C@H]2CC[C@@H](O)CC2)CC1	56 to 57
CCOC1=C(C)C(=O)C(C)(C)CC1	104 to 106
CSc1cn(C)c2ccsc2c1=O	171 to 174
CSCc1cn(C)c2c(F)cccc2c1=O	165 to 167
Cc1ccc(-c2cc(OCC(=O)N3CCOCC3)c3c(Cl)cccc3n2)cc1	170
Nc1c(OCC(O)CN2CCC(COc3ccccc3)CC2)cccc1[N+](=O)[O-] (stereo not drawn)	117 to 118
CCCCNC(=O)C(C)(C)COc1cccc2nc(C)c(C(=O)O)c(N)c12	195 to 199
CC(=O)Nc1ccc(C2=NNC(=O)C2)cc1	254 to 258
CO[C@@H]1CCCC(c2ccc(C(=O)N3Cc4cccn4Cc4ccccc43)cc2C)=C1C	127 to 128
CCOC(=O)Cc1ccc(NC(=O)C(COc2cccc(Cl)c2)NS(=O)(=O)c2ccc(I)cc2)cc1 (racemic)	169 to 170
C[C@H]1[C@@H](C(N)=O)CCN1c1ccc(C#N)c2ccccc12	204 to 206
CCOC(=O)CC1CCCc2cc(C#N)ccc21 (stereo not drawn)	45 to 47
Cc1onc(NS(=O)(=O)c2ccccc2)c1Br	128 to 130
CC1=CC(c2cccc([N+](=O)[O-])c2)C2=C(CCCC2=O)N1 (stereo not drawn)	183 to 185
Cc1ccc(NC(=O)NCC(=O)N(CC(=O)OC(C)(C)C)c2ccccc2C(=O)c2ccccc2)cc1	182 to 183
Cc1c(NC(=O)c2ccc(OCCCCF)cc2F)ccc2cc(CN3CCCC3)cnc12	140

SMILES	melting point [°C]
CCCc1cccc2c(/C=C(\C)C(=O)O)cc(OC)c(OCOC)c12	67 to 68
CCCCCCn1c(C)cc(C)c(C#N)c1=O	63 to 69
CSc1cc(C)c(O)c(C)c1SC	98 to 100
O=C(O)c1cn(C2CC2)c2cc(N3CC(O)C3)c(F)cc2c1=O	296 to 298
CN1CCC[C@H](OCc2cc(C(F)(F)F)cc(C(F)(F)F)c2)[C@@H]1c1ccccc1	40 to 42
CCN(CC)P(N)(N)=S	54 to 58
CC(C)C(S)C(=O)NCC(=O)O (stereo not drawn)	118 to 119
C=CCOc1ccc2cc(Br)ccc2c1	35 to 37
CC(C)(C)c1cc(-n2nc3ccc(Cl)cc3n2)c(O)c(C(C)(C)c2ccc(Cl)cc2)c1	130 to 131
CCc1nnc2c(N(CC)CC)nc3cc(Cl)c(Cl)cc3n12	147 to 149
COc1ccc2c(c1)c(CC(=O)NN)c(C)n2Cc1c(Cl)cccc1Cl	194 to 196
CCCCOC(=O)c1c(CBr)nc2cc(OC)c(OC)cc2c1-c1ccc(OC)c(OC)c1	160 to 161
COC(=O)Cn1nnnc1-c1cccc(C#N)c1	67 to 69
COc1ccccc1N1CCN(c2nc3cccc4c3n2CCC4)CC1	199 to 201
O=c1[nH]c(=O)n(Cc2ccccc2)cc1C=NO	172 to 174
CCNc1nc2ccc(CCc3nc4cc(C)ccn4c3C)cc2s1	165 to 166
CCCC1Cc2c(c(C)c(C)c3oc(C(=O)O)cc23)C1=O (stereo not drawn)	287
N#CCC(=O)c1cccn1Cc1ccccc1	119 to 120
CC(NC(Nc1cc(C(F)(F)F)cc(C(F)(F)F)c1)=C(C#N)S(C)(=O)=O)C(C)(C)C (stereo not drawn)	181 to 182
C[C@H](NC(=O)c1cc(Cl)cnc1Oc1ccc(F)cc1)c1ccc(C(=O)O)cc1	198
COc1ccccc1C(=O)NS(=O)(=O)c1ccc(NC(=O)c2ccc(Cl)cc2Cl)cc1	140 to 146

Now from value to molecule:

melting point [°C]	SMILES
100 to 102	COC(=O)c1c(NC(=O)C(C)(C)C)c(Cl)cc(OC)c1OC
250 to 251	N#CC(=NOS(=O)(=O)c1ccc(C(=O)O)cc1)c1ccccc1
91.4 to 91.6	CCCCOc1ccc(CCCOC(=O)NS(=O)(=O)NCCOC(C)C)c(Oc2ncc(C(F)(F)F)cc2Cl)c1
93	CCOC(=O)c1sc(Br)c2c1OCO2
67	Oc1ccc(OCc2ccccc2)cc1F
241 to 243	CCCNC1=NS(=O)(=O)c2cc(C(F)(F)F)ccc2N1
99 to 101	CC(C)N1C(=O)c2ccccc2N(C#N)S1(=O)=O
157 to 162	Cn1c(COc2ccc(CC3SC(=O)NC3=O)cc2)nc2ccc(OCCc3ccc(NC(=O)Nc4ccc(Cl)cc4)cc3)cc21 (stereo not drawn)
261	Cc1cc(-c2cc(C(F)F)n3ncc(C(=O)Nc4cccc(S(C)(=O)=O)c4)c3n2)ccc1C(F)(F)F
258 to 259	O=C1C(O)=C(c2ccc(Cl)cc2)C(=O)C(O)=C1/C=C/c1ccccc1
274 to 276	O=c1c2c(Cc3ccccc3[N+](=O)[O-])n[nH]c2c2cccnc2n1-c1cccc(OC(F)(F)F)c1
221 to 224	CN(C)S(=O)(=O)c1ccc(Cl)c(-c2csc(=Nc3ccc(O)cc3)n2C)c1
187 to 190	Fc1ccc2[nH]c(CC3CCN(CC4CCc5ccccc5O4)CC3)cc2c1 (stereo not drawn)
187 to 188	Cc1ccc(N2CCN(Cc3n[nH]c4c(Cl)cccc34)CC2)cc1
174 to 176	Cc1ccccc1NC(=O)C=CC=CC1(F)CC1c1ccc(Br)c(Br)c1 (stereo not drawn)
65 to 66	CCOC(=O)/C=C/C=C/c1ccc(OCC(F)(F)C(F)F)cc1
158	Cc1ccc(S(=O)(=O)n2c(I)cc3cc(F)cnc32)cc1
158 to 160	CCOCS(=O)(=O)c1ccc(C(CC2CCCC2)C(=O)Nc2nc3ccc(OC)nc3s2)cc1 (stereo not drawn)
153 to 154	Cc1cccnc1C(O)c1ccc(N)cc1 (stereo not drawn)
134 to 136	Cc1cc(=O)n(-c2cc(C(=O)OC(C)C)c(Cl)cc2F)c(=O)[nH]1

melting point [°C]	SMILES
48 to 50	Cc1c(SCCCSCCc2ccccc2)ccnc1CSc1ccncc1
225 to 226	Cc1c(-c2cc(F)cc(C(F)(F)F)c2)ccc2nc(N)nc(N)c12
157 to 158	C=CC(=O)CC1CN=C(c2cc3cccc(N(C)S(=O)(=O)c4cccs4)c3[nH]2)S1 (stereo not drawn)
240	C=CCOc1ccccc1NC=C1C(=O)N(c2ccc(C(=O)O)cc2)N=C1C
180	C=CCN(CC=C)c1nc(NC2CC(C)(C)NC(C)(C)C2)nc(NC(C)(C)CC(C)(C)C)n1
74.5 to 75.5	CC(c1ccc(-c2ccccc2)c(F)c1)c1csc(NCCc2ccccc2)n1 (stereo not drawn)
143	Brc1cn2c(Br)cnc2c(NCc2ccco2)n1
167 to 169	CCCCCN1C(=O)C(N)(CC(=O)c2cccs2)c2ccccc21 (stereo not drawn)
97 to 99	Cc1cc(Cl)ccc1N=CN(C)SN(Cc1ccccc1)Cc1ccccc1
197 to 199	CCc1cccc(CC)c1NC(=O)C(C)Br (stereo not drawn)
114 to 115	COc1ccc(C(=O)Nc2c(Cl)cncc2Cl)cc1OCCCCCCCCCCCc1ccccc1
75 to 76	CCCCCCCCCCCCCCOc1ccc(NCc2cccnc2)cc1
134 to 135	CSC(=Nc1c(C)nn(C)c1C)Nc1cc(Cl)ccc1C
123 to 126	COC(=O)c1cc(C(C)Br)cnc1C1=NC(C)(C(C)C)C(=O)N1 (stereo not drawn)
50 to 52	CCCCCCCNc1ccncc1
124 to 126	CCC1c2cccn2-c2ccccc2N1S(=O)(=O)c1ccc(OC)c(C)c1 (stereo not drawn)
185 to 186	C[C@H](NC(=O)C(CSC(=O)c1ccccc1)SC(=O)c1ccccc1)C(=O)N1CCC[C@H]1C(=O)O (stereo partly drawn)
173 to 174	Cc1oc(=O)oc1CS[C@H](C)[C@](O)(Cn1cncn1)c1ccc(F)cc1F (racemic)
153 to 157	COc1cc(CCNC(=O)[C@@H](NS(C)(=O)=O)C(C)C)ccc1OCc1cccc2ccccc12
> 250	CS(=O)(=O)Nc1cc2occ(NC(N)=O)c(=O)c2cc1Oc1ccccc1
